Laboratory results taken from publication PMC10762035, “Molecular basis of human trace amine-associated receptor 1 activation” (Nature Communications, 2024).
Numbering of substitutions follows the chain as printed. Where “and” joins values, the source holds several entries; their conditions need not be identical. Equal entries are not always repeated. Where two headings read alike, the source gives them in different places.

Legend:
Format in all cases: cell-based
[1] = biological target: T1, hTA1 F195T (Homo sapiens, UniProt Q96RJ0, F195T); test: GloSensor cAMP accumulation assay, F195T mutant;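 note: cells transiently co-expressing HA-FLAG-tagged hTA1 and the GloSensor cAMP biosensor, luminescence read 30 min after agonist addition at room temperature, concentration-response fitted by nonlinear regression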
T1 construct: expressed in transfected cells; host or cells: HEK293T
T1 sequence (Q96RJ0 1-339 F195T): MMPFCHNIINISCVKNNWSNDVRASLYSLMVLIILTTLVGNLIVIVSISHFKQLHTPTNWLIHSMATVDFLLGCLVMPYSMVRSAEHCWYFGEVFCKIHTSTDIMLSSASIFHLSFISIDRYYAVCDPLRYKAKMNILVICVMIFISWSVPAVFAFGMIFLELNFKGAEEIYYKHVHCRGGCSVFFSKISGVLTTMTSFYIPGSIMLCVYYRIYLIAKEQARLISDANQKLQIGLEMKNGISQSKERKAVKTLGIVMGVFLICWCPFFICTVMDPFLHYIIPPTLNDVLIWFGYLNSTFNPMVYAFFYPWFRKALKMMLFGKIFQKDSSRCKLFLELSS

[2] = biological target: T2, hTA1 W264F (Homo sapiens, UniProt Q96RJ0, W264F); test: GloSensor cAMP accumulation assay, W264F mutant;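 note: cells transiently transfected with receptor plus GloSensor, luminescence read 30 min after agonist addition at room temperature, concentration-response curves fitted by log(agonist) vs response regression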
T2 construct: expressed in transfected cells; host or cells: HEK293T
T2 sequence (Q96RJ0 1-339 W264F): T1 sequence (Q96RJ0 1-339 F195T) with T195F, W264F

[3] = biological target: T3, β2AR-Nterm-hTA1-F112^3.41W (CryoEM Construct) (Homo sapiens, UniProt Q96RJ0, F112W); test: GloSensor cAMP accumulation assay, cryoEM construct;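 note: cells transiently co-transfected with the receptor construct and GloSensor cAMP biosensor, luminescence read after 30 min compound exposure at room temperature in the dark as cAMP accumulation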;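 for Normalized Luminescence Counts (N=2): normalized to the maximum response of β-PEA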
T3 construct: FLAG (N); 10xHis (N); TEV protease site (N); expressed in transfected cells; host or cells: HEK293T

[4] = biological target: T4, hTA1 T271N (Homo sapiens, UniProt Q96RJ0, T271N); test: GloSensor cAMP accumulation assay, T271N mutant
T4 construct: expressed in transfected cells; host or cells: HEK293T
T4 sequence (Q96RJ0 1-339 T271N): T1 sequence (Q96RJ0 1-339 F195T) with T195F, T271N

[5] = biological target: T5, hTA1 I290Y (Homo sapiens, UniProt Q96RJ0, I290Y); test: GloSensor cAMP accumulation assay, I290Y mutant; conditions: for cAMP accumulation response, normalized (concentration-response source data, single replicate values): hTA1 I290Y (N=3), log[Compound];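 for cAMP accumulation response, normalized (concentration-response source data, single replicate values): normalized to the maximum response of β-PEA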
T5 construct: expressed in transfected cells; host or cells: HEK293T
T5 sequence (Q96RJ0 1-339 I290Y): T1 sequence (Q96RJ0 1-339 F195T) with T195F, I290Y

[6] = biological target: T6, hTA1 C96S (Homo sapiens, UniProt Q96RJ0, C96S); test: GloSensor cAMP accumulation assay, C96S mutant; conditions: log[Compound]
T6 construct: expressed in transfected cells; host or cells: HEK293T
T6 sequence (Q96RJ0 1-339 C96S): T1 sequence (Q96RJ0 1-339 F195T) with C96S, T195F

[7] = W246F mutant (so in the source) minus WT average
[8] = Cryo EM Construct minus WT average

T3 sequence (Q96RJ0 with tags, fused parts or gaps F112W): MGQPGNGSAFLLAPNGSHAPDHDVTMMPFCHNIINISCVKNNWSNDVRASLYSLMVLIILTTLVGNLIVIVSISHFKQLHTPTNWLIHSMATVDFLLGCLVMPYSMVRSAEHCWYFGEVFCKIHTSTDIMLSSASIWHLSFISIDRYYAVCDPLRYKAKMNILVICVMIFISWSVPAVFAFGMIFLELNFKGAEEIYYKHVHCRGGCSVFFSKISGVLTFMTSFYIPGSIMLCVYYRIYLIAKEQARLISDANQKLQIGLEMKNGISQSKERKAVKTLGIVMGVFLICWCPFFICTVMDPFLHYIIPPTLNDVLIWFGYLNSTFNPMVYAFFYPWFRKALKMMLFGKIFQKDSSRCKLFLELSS

Structure (SMILES): NCCc1ccc(O)cc1 [TYR, tyramine]
- increase in potency vs wild type ([1]; F195T): 26 fold
- EC50 ([1]; F195T mutant, Figure 5B, each row one independent experiment (3 replicates), read-out: pEC50 values, Mean (converted)): 10.2 nM and 24.6 nM
- Emax values, Mean ([1]; F195T mutant, Figure 5B, β-PEA = 100, each row one independent experiment (3 replicates)): 119.677 and 98.2455
- EC50 ([1]; F195T, n=2, read-out: EC50): 6.34 nM
- Emax ([1]; F195T, n=2, read-out: Span ± SEM (Emax normalized to β-PEA)): 109%
- ΔEmax values (each mutant value - WT average) [2, 7]: 2.816
- ΔpEC50 values (each mutant value - WT average) [2, 7]: -1.54 and -1.2519
- EC50 ([2]; W246F mutant (so in the source), each line an independent experiment, 3 replicates, read-out: pEC50 values (Mean) (converted)): 14400 nM and 7410 nM
- Emax values, Mean ([2]; W246F mutant (so in the source), β-PEA = 100, each line an independent experiment, 3 replicates): 99.2183
- Emax ([2]; W246F mutant (so in the source), β-PEA = 100, each line an independent experiment, 3 replicates, read-out: Emax values (Mean)): 102%
- EC50 ([2]; W264F, n=2, read-out: EC50): 10300 nM
- Emax ([2]; W264F, n=2, read-out: Span ± SEM (Emax normalized to β-PEA)): 101 ± 1.29%
- ΔEmax values (each mutant value - WT average), Mean [3, 8]: 14.87 and 14.1384
- ΔpEC50 values (each mutant value - WT average), Mean [3, 8]: 0.1106 and 0.3686
- Emax values, Mean ([3]; Cryo EM Construct, mean of each independent experiment (3 replicates)): 0.3686
- EC50 ([3]; Cryo EM Construct, mean of each independent experiment (3 replicates), read-out: pEC50 values, Mean (converted)): 322 nM and 178 nM
- Normalized Luminescence Counts (N=2) ([3]; CryoEM Construct, log[Compound], M = -5, single replicates): 108.729 and 109.99 and 112.27 and 114.944
- EC50 ([3]; CryoEM Construct, n=2, read-out: EC50): 235 nM
- Emax ([3]; CryoEM Construct, n=2, read-out: Span ± SEM (Emax normalized to β-PEA)): 113 ± 2.5%
- EC50 ([3]; CryoEM Construct, n=2, read-out: pEC50 ± SEM (converted)): 240 nM
- EC50 ([4]; T271N mutant, Figure 5B, each row one independent experiment (3 replicates), read-out: pEC50 values, Mean (converted)): 553 nM and 1350 nM
- Emax values, Mean ([4]; T271N mutant, Figure 5B, β-PEA = 100, each row one independent experiment (3 replicates)): 98.6225
- Emax ([4]; T271N mutant, Figure 5B, β-PEA = 100, each row one independent experiment (3 replicates), read-out: Emax values, Mean): 106%
- EC50 ([4]; T271N, n=2, read-out: EC50): 863 nM
- Emax ([4]; T271N, n=2, read-out: Span ± SEM (Emax normalized to β-PEA)): 103 ± 3.93%
- EC50 ([5]; I290Y, read-out: EC50): 1960 nM
- Emax ([5]; I290Y, read-out: Span ± SEM (Emax normalized to β-PEA)): 99 ± 3.2%
- EC50 ([5]; I290Y, single experiments (3 replicates each), read-out: pEC50 values, Mean (converted)): 2120 nM and 1010 nM and 3550 nM
- Emax values, Mean ([5]; I290Y, single experiments (3 replicates each), β-PEA = 100): 103.315 and 92.7474 and 100.92
- cAMP accumulation response, normalized (concentration-response source data, single replicate values) ([5]; M = -5): 70.7589 and 112.926 and 76.6069 and 77.3087 and 89.0347 and 68.1478 and 71.4902 and 86.1539 and 63.5944
- cAMP accumulation response, normalized (concentration-response source data, single replicate values) ([5]; M = -5.522): 50.1368 and 56.2927 and 58.1394 and 72.545 (2×) and 68.5142 and 46.6748 and 35.395 and 37.651
- cAMP accumulation response, normalized (concentration-response source data, single replicate values) ([5]; M = -6): 26.4369 and 46.4433 and 36.2862 and 39.5657 and 32.9698 and 41.0314 and 25.2433 and 19.6034 and 27.4992
- cAMP accumulation response, normalized (concentration-response source data, single replicate values) ([5]; M = -6.522): 10.4317 and 18.1265 and 13.2018 and 24.1753 and 16.4801 and 23.4424 and 9.4516 (2×) and 6.068
- cAMP accumulation response, normalized (concentration-response source data, single replicate values) ([5]; M = -7): 2.737 and 6.123 and 3.045 and 3.288 (2×) and 0.7233 and 1.556 and -0.7002 and 0.4278
- cAMP accumulation response, normalized (concentration-response source data, single replicate values) ([5]; M = -7.522): 0.8902 and 0.2746 and -1.88 and -4.407 and -4.773 and -3.674 and -4.0841 and -1.828 and -2.956
- cAMP accumulation response, normalized (concentration-response source data, single replicate values) ([5]; M = -8): -1.264 and 0.8902 and -0.6488 and -2.575 and -3.307 (2×) and -4.0841 (2×) and -5.212
- cAMP accumulation response, normalized (concentration-response source data, single replicate values) ([5]; M = -8.522): -1.264 and -0.0332 and 0.5824 and -4.407 and -3.674 and -2.956 (2×) and -4.0841
- cAMP accumulation response, normalized (concentration-response source data, single replicate values) ([5]; M = -9): -3.7267 and 0.8902 and -1.88 and 1.823 and 4.021 and -3.674 and -1.828 and -2.956 and -4.0841
- cAMP accumulation response, normalized (concentration-response source data, single replicate values) ([5]; M = -9.522): -3.419 and -0.6488 and -1.88 and -6.239 and -4.407 and -2.208 and -2.956 (2×) and -5.212
- cAMP accumulation response, normalized (concentration-response source data, single replicate values) ([5]; M = -10): -1.88 and -0.9566 and -1.572 and -6.605 and -4.407 and -2.956 (2×) and -1.828
- cAMP accumulation response, normalized (concentration-response source data, single replicate values) ([5]; M = -10.522): -1.572 (2×) and 0.5824
- Normalized Luminescence Counts ([6]; C96S, M = -5, single replicates (N=2)): 1.4045 and 3.382 and -0.5726 and -0.7614 and 6.985 and 24.4145
- Normalized Luminescence Counts ([6]; C96S, M = -5.522, single replicates (N=2)): 0.08646 and 2.064 and -0.5726 and 5.048 (2×) and 10.8582
- Normalized Luminescence Counts ([6]; C96S, M = -6, single replicates (N=2)): -1.891 and 1.4045 and -2.55 and -0.7614 and 5.048 and -8.508
- Normalized Luminescence Counts ([6]; C96S, M = -6.522, single replicates (N=2)): -0.5726 and -3.209 and -2.55 and -6.571 (2×) and -2.698
- Normalized Luminescence Counts ([6]; C96S, M = -7, single replicates (N=2)): 0.08646 and 0.7455 and -2.55 and -0.7614 and -4.6346 and -2.698
- Normalized Luminescence Counts ([6]; C96S, M = -7.522, single replicates (N=2)): -1.232 and -0.5726 and 0.7455 and 1.175 and -2.698 and 3.112
- Normalized Luminescence Counts ([6]; C96S, M = -8, single replicates (N=2)): 2.064 and 0.7455 and -0.5726 and 3.112 and 24.4145 and -12.381
- Normalized Luminescence Counts ([6]; C96S, M = -8.522, single replicates (N=2)): -1.891 and 0.08646 and -1.232 and 6.985 and 10.8582 and 12.7948
- Normalized Luminescence Counts ([6]; C96S, M = -9, single replicates (N=2)): -1.232 and -0.5726 and -1.891 and 1.175 and -4.6346 and 6.985
- Normalized Luminescence Counts ([6]; C96S, M = -9.522, single replicates (N=2)): -3.209 and -0.5726 and -3.868 and 8.922 and 55.4002 and 6.985
- Normalized Luminescence Counts ([6]; C96S, M = -10, single replicates (N=2)): -1.232 and 0.08646 (2×) and 5.048 and 3.112 and 12.7948
- Normalized Luminescence Counts ([6]; C96S, M = -10.522, single replicates (N=2)): -0.5726 and 2.064 and 0.08646 and 6.985 and -4.6346 and -0.7614
- Normalized Luminescence Counts ([6]; C96S, M = -11, single replicates (N=2)): 0.7455 and 2.723 and -1.232 and 3.112 (2×) and 10.8582
- Normalized Luminescence Counts ([6]; C96S, M = -11.522, single replicates (N=2)): -0.5726 and 3.382 and -2.55 and -8.508
- Normalized Luminescence Counts ([6]; M = -11.522, single replicates, mutant block above C178S): -0.1784 and -0.1556 and -0.3377 and 0.3752 and 3.634 and 2.245
- Normalized Luminescence Counts ([6]; M = -12, single replicates, mutant block above C178S): 0.04925 and -0.1556 and -0.3149 and 0.2684 and 2.352 and 1.711
- Normalized Luminescence Counts ([6]; M = -12.522, single replicates, mutant block above C178S): -0.4515 and -0.588 and -0.5653 and 1.283 and 1.3903 and 1.07
